The numbers were not newly measured in patent US20250090695A1, “IMMUNOSTIMULANT-CYTOTOXIC CONJUGATE COMPOSITION AND METHODS FOR CANCER TREATMENT” (The Research Foundation for the State University of New York, priority 2022, published 2025), which cites them from elsewhere.

For data set [1] the following is noted: patients; versus 11.2 months with placebo; cited from earlier work.
For data set [2] the following is noted: metastatic setting; cited from earlier work.

In the case of Radium-223, the Overall survival in data set [1] was 14 months.

As for `CNC(=O)c1ccc(N2C(=S)N(c3ccc(C#N)c(C(F)(F)F)c3)C(=O)C2(C)C)cc1F` [enzalutamide], the Overall survival extension in data set [2] is 4-5 months.
